Experimental data taken from patent US11673876B2, “Substituted aminobenzyl heteroaryl compounds as EGFR and/or PI3K inhibitors” (Mekanistic Therapeutics LLC, priority 2020, dated 2023).

How the values were obtained:
Type in all cases: in vivo
[1] = tested on: PI3K gamma mutant human CAL-27 (squamous head and neck cancer); test: CAL-27 xenograft study in NCR nude mice; details: CAL-27 model
Method: (§1) Xenograft Studies. Female NCR nude mice (CrTac:NCr-Foxn1nu from Taconic), 6-7 weeks old, were implanted subcutaneously with 5×10^6 cells in a 1:1 serum-free media/Matrigel® mixture into the region of the right axilla. Mice were randomized into treatment groups and treatments initiated when tumors reached 100 to 200 mg. Compound 2R was administered daily by oral gavage as a fine suspension in 1:2 propylene (glycol in 1% Tween80/Na3PO4 based upon individual animal body weight (0.2 mL/20 g). Subcutaneous tumor volume and body weights were measured two to three times a week. Tumor volumes were calculated by measuring two perpendicular diameters with calipers and using the formula: tumor volume=(length×width2)/2. Individual mice were dosed daily until their tumor burden reached 500 mg for the CAL-27 and HCC-70 models or 1000 mg for the CAL-33 model, to allow for calculation of increase in progression-free survival. Percent increase in survival was calculated by comparing the median time to reach either 500 mg or 1000 mg in the treated group versus the vehicle control group. A complete response (CR) is defined as a tumor below the limits of palpation (<40 mg).
(§2) FIGS. 1-3 show the performance of Compound 2R in controlling tumor size. […] Tumor growth curves as well as survival and objective response data are summarized in the accompanying FIGS. 1-3 and the table below.

[2] = tested on: PIK3CA mutant human CAL-33 (squamous head and neck cancer); test: CAL-33 xenograft study in NCR nude mice; details: for Median Increase In Survival: time to 1000 mg vs vehicle
Method: as §1, §2

[3] = tested on: human HCC-70 (triple negative breast cancer); test: HCC-70 xenograft study in NCR nude mice
Method: as §1, §2

## C[C@@H](Nc1ncnc2ccc(-c3cnc(Cl)c(NS(C)(=O)=O)c3)cc12)c1ccccc1 [Compound 2R, N-(2-chloro-5-(4-((1R-phenylethyl)amino)quinazolin-6-yl)pyridin-3-yl)methanesulfonamide]
[1]
  single agent activity (tumor growth): Single agent activity of Compound 2R was demonstrated
[2]; CAL-33, 25 mg/kg daily oral gavage
  Median Increase In Survival: >700%
[2]; CAL-33, 50 mg/kg daily oral gavage
  Median Increase In Survival: >700%
[2]; CAL-33, 100 mg/kg daily oral gavage
  Median Increase In Survival: >700%
[2]; CAL-33 model
  single agent activity (tumor growth): Single agent activity of Compound 2R was demonstrated
[3]; HCC-70, 100 mg/kg daily oral gavage, time to 500 mg vs vehicle
  Median Increase In Survival: 363%
[3]; HCC-70 model
  single agent activity (tumor growth): Single agent activity of Compound 2R was demonstrated
